From patent US11377451B2, “Compositions and methods for treating cancer” (The Regents of the University of California, priority 2019, dated 2022)
pIC50: −log10 of the molar value. Like-named read-outs stand apart in the source and are kept apart here.

Tests used:
[1] = test system: BIM, PUMA; PI3K-AKT-mTOR signaling; assay: Immunoblotting; assay type: cell-based, human
Method: Cells were collected and lysed in RIPA buffer (Boston BioProducts) containing Halt Protease and Phosphatase Inhibitor (Thermo Fischer Scientific). Lysates were centrifuged at 14,000×g for 15 min at 4° C. […] Membranes were developed using the SuperSignal system (Thermo Fischer Scientific).

[2] = Pharmacokinetic / brain penetration studies in mice; assay type: in vivo
Method: Pharmacokinetic studies were performed on male CD-1 mice aged 8-10 weeks. Mice were dosed as indicated in duplicates. At the time points, whole blood was obtained by retro-orbital bleeding and brain tissue was harvested. Blood samples were centrifuged to obtain plasma and brain tissue was washed and homogenized. Samples were extracted with acetonitrile and supernatant was dried using a speed-vac. Dried samples were solubilized in 50:50:0.1 acetonitrile:water:formic acid and quantified on an Agilent 6400 series Triple Quadrupole LC/MS.
Disclosed in table 5 Brain to plasma percentages and unbound ratios of drugs in brain to plasma of indicated drugs in non-tumor bearing mice

[3] = cited from earlier work
HK301 = assay: GI50 assay (Cell Titer Glo proliferation, 3 days); assay type: cell-based, human; conditions: Homo sapiens, 72 h
gliomas = conditions: cited from earlier work
[4] = test system: patient-derived GBM gliomaspheres; assay: 18F-FDG uptake assay; assay type: cell-based, human; conditions: 4 hours
Method: Cells were plated at 5×10^4 cells/ml and treated with designated drugs for indicated time points. Following appropriate treatment, cells were collected and resuspended in glucose-free DMEM/F12 (USBiological) containing ^18F-FDG (radioactivity 1 μCi/mL). Cells were incubated at 37° C. for 1 hr and then washed three times with ice cold PBS. Radioactivity of each sample was then measured using a gamma counter.

[5] = Protein binding (fraction unbound in blood and brain)
[6] = test system: patient-derived GBM gliomaspheres; assay: Annexin V apoptosis assay; assay type: cell-based, human; conditions: for apoptosis (annexin V staining): 72 hours of erlotinib exposure, 1 μM; for synergy with nutlin treatment (annexin V): HK301 gliomaspheres, 72 hours, in combination with nutlin 2.5 μM
Method: Cells were collected and analyzed for Annexin V and PI staining according to manufacturer's protocol (BD Biosciences). Briefly, cells were plated at 5×10^4 cells/ml and treated with appropriate drugs. Following indicated time points, cells were collected, trypsinized, washed with PBS, and stained with Annexin V and PI for 15 minutes. Samples were then analyzed using the BD LSRII flow cytometer.
Annexin V staining was measured following 72 hrs of treatment. Using the Chalice software, the response of the combination was compared to its single agents. The combinatorial effects were calculated using the synergy score.

[7] = test system: GBM39 and HK393 intracranial xenografts; assay: Intracranial delayed 18F-FDG PET/CT mouse imaging; assay type: in vivo, mice
Method: Following 1 hr unconscious uptake, mice were taken off anesthesia but kept warm for another 5 hr of uptake. 6 hr after the initial administration of ^18F-FDG, mice were imaged using G8 PET/CT scanner (Sofie Biosciences). Per above, quantification was performed by drawing 3D regions of interest (ROI) using the AMIDE software.

[8] = test system: patient-derived GBM gliomaspheres; assay: Dynamic BH3 profiling (apoptotic priming, cytochrome c release); assay type: cell-based, human
Method: GBM gliomaspheres were first disassociated to single-cell suspensions with TrypLE (Gibco) and resuspended in MEB buffer (150 mM Mannitol 10 mM HEPES-KOH, 50 mM KCl, 0.02 mM EGTA, 0.02 mM EDTA, 0.1% BSA, 5 mM Succinate). 50 μl of cell suspension (3×10^4 cells/well) were plated in wells holding 50 μL MEB buffer containing 0.002% digitonin and indicated peptides in 96-well plates. Plates were then incubated at 25° C. for 50 min. […] Samples were stained overnight with 20 μL of staining solution (10% BSA, 2% Tween 20 in PBS) containing DAPI and anti-cytochrome c (BioLegend). The following day, cytochrome c release was quantified using BD LSRII flow cytometer. […] Delta priming refers to the difference in amount of cytochrome c release between vehicle treated cells and drug treated cells.

[9] = Idasanutlin brain and plasma concentrations by mass spectrometry; assay type: in vivo; conditions: male, CD-1, mouse, mice with an intact blood-brain-barrier, 50 mg/kg oral gavage
Method: Male CD-1 mice (6-8 weeks old) were treated with 50 mg/kg Idasanutlin in duplicate through oral gavage. At 0.5, 1, 2, 4, 6, 8, 12, and 24 hr after administration, mice were sacrificed, blood was harvested by retro-orbital bleeding, and brain tissue was collected. Whole blood from mice was centrifuged to isolate plasma. Idasanutlin was isolated by liquid-liquid extraction from plasma: 50 μL plasma was added to 2 μL internal standard and 100 μL acetonitrile. Mouse brain tissue was washed with 2 mL cold PBS and homogenized using a tissue homogenizer with fresh 2 mL cold PBS. Idasanutlin was then isolated and reconstituted in a similar manner by liquid-liquid extraction: 100 μL brain homogenate was added to 2 μL internal standard and 200 μL acetonitrile. After vortex mixing, the samples was centrifuged. The supernatant was removed and evaporated by a rotary evaporator and reconstituted in 100 μL 50:50 water: acetonitrile.
Chromatographic separations were performed on a 100×2.1 mm Phenomenex Kinetex C18 column (Kinetex) using the 1290 Infinity LC system (Agilent). The mobile phase was composed of solvent A: 0.1% formic acid in Milli-Q water, and B: 0.1% formic acid in acetonitrile. […] Analyte signal was normalized to the internal standard and concentrations were determined by comparison to the calibration curve (0.5, 5, 50, 250, 500, 2000 nM). […]

p53 = assay: Immunohistochemistry of p53 in orthotopic tumor-bearing mice; assay type: in vivo; conditions: 50 mg/kg, 36 hours
Method: Immunohistochemistry was performed on 4 μm sections that were cut from FFPE (formalin-fixed, paraffin-embedded) blocks. Sections were then deparaffinised with xylene and rehydrated through graded ethanol. […] Tissue sections were then treated with 3% hydrogen peroxide (LOT 161509; Fisher Chemical) and with Background Sniper (Biocare Medical, Concord, Calif., USA) to reduce nonspecific background staining. Primary antibody for p53 (Cell Signaling, 2527) was applied in a 1:150 dilution for 80 min followed by detection with the MACH 3 Rabbit HRP-Polymer Detection kit (Biocare Medical). Visualization was achieved using VECTOR NovaRED (SK-4800; Vector Laboratories, Inc.) as chromogen. Lastly, sections were counterstained with Tacha's Automated Hematoxylin (Biocare Medical).

EGFR = molecular target: T1, EGFR (Homo sapiens, UniProt P00533); assay: Cell Free EGFR Kinase Assay (ADP-Glo); assay type: biochemical; conditions: FIG. 3
T1 construct: purchased Promega V3831
T1 sequence (P00533 25-1210): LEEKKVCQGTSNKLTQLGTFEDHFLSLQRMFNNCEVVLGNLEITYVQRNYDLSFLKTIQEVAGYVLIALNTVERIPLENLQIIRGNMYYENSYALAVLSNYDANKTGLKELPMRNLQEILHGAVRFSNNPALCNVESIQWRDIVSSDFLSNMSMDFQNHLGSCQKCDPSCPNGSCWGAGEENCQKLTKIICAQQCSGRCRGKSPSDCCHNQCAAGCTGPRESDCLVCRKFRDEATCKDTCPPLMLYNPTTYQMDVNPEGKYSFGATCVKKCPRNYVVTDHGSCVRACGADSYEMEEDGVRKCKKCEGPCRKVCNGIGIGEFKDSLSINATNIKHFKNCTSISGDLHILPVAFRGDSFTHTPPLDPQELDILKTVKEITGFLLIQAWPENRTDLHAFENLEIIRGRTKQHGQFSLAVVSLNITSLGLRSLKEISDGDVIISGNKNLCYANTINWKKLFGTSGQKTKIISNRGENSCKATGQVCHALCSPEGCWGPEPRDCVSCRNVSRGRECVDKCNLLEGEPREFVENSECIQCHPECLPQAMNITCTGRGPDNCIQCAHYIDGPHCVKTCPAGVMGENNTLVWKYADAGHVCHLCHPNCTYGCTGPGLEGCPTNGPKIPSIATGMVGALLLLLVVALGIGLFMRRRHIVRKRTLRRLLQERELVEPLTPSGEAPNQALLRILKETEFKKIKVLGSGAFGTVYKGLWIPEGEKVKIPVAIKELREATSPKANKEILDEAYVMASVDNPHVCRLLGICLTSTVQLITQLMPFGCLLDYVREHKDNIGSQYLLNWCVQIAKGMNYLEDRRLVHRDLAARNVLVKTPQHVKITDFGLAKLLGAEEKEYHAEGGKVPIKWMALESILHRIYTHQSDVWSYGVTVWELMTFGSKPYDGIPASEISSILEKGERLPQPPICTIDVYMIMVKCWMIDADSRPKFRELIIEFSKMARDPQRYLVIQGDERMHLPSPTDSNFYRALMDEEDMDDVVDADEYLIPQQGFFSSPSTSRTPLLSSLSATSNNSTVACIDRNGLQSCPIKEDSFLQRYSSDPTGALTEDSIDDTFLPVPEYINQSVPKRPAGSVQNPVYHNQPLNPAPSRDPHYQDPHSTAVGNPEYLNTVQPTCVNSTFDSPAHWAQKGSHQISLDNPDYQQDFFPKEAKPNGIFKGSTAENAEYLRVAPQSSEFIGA
Method: The Cell Free EGFR Kinase Assay was performed using the EGFR Kinase System (Promega #V3831). […] The ADP-Glo Kinase Assay (Promega #V6930) was used to measure EGFR activity in the presence of inhibitors.

GBM39 = assay: GI50 assay (Cell Titer Glo proliferation, 3 days); assay type: cell-based, human; conditions: Homo sapiens, 72 h; GBM39, 3 days
[10] = higher dose: Erlotinib 1500 (weekly), Gefitinib 750-1000
[11] = HK393 and HK254 (EGFRi non-responders), 24 hours
[12] = male, CD-1, mouse, Table 4, unbound partition coefficient of the brain and plasma, at equilibrium

## C#Cc1cccc(Nc2ncnc3cc(OCCOC)c(OCCOC)cc23)c1 [Erlotinib, erlotinib]
[1]; only in the metabolic responder cultures, acute erlotinib treatment
  expression of pro-apoptotic BH3-only proteins BIM and PUMA: promoted the expression
[2]; Table 4, unbound partition coefficient of the brain and plasma, at equilibrium
  Kpuu (Avg): 0.0513
[2]; Table 5, unbound ratios of drugs in brain to plasma, non-tumor bearing mice
  Kpuu (Avg): 0.051
[3]; Daily Dose: Afatinib 50, Alectinib 1200, Crizotinib 500, Erlotinib 150, Gefitinib 250, Lapatinib 1250
  CSF: 28.7 ± 16.8 ng/mL
[3]; Daily Dose: Afatinib 50, Crizotinib 500, Erlotinib 150, Gefitinib 250, Lapatinib 1250
  Plasma: 1140 ± 937 ng/mL
[3]; [10]
  CSF: 51.1 ng/mL
  Plasma: 4445.9 ng/mL
HK301; read-out: HK301 GI50 (nM)
  GI50: 642 nM
gliomas
  response rates against gliomas: ≤ 25%
[4]; metabolic responder GBMs, erlotinib 1 μM
  radio-labeled glucose uptake (18F-FDG): significantly attenuated
[5]; blood
  Bound (blood): 95.12%
[5]; blood, Fu (blood)
  fraction unbound: 0.0488
[5]; brain
  Bound (brain): 97.07%
[5]; brain, Fu (brain)
  fraction unbound: 0.0293
[6]; metabolic responders
  apoptosis (annexin V staining): ~17%
[6]; non-responders
  apoptosis (annexin V staining): ~3%
[7]; GBM39 orthotopic xenografts, erlotinib 75 mg/kg, 15 hours post administration
  18F-FDG uptake (PET): rapidly reduced
[7]; HK393 orthotopic xenografts (non-metabolic responder), acute EGFRi
  18F-FDG uptake (PET): no changes

## O=CC[C@@H](O)[C@H](O)[C@H](O)CO [2DG, 2-deoxyglucose]
[6]; EGFRi non-responder cells (HK393, HK254), combined with nutlin
  lethality in combination with nutlin: significant, p53-dependent synergistic lethality
[6]; FIG. 37A, gliomasphere samples treated for 72 hours, combination with nutlin
  synergy with p53 activation (nutlin), cell death by annexin V: unexpectedly synergizes with p53 activation
[6]
  synergy with nutlin treatment (annexin V): synergy with nutlin
[8]; HK301 (EGFRi metabolic responder), 2DG
  apoptotic priming: stimulated apoptotic priming
[8]; [11]
  apoptotic priming: completely mirrored these effects

## NS(=O)(=O)C#Cc1ccccc1 [pifithrin-μ]
[8]; HK301, PFTμ pre-treatment 10 μM for 2 hours, erlotinib 24 hours
  effect on priming with erlotinib: markedly reduced priming with erlotinib

## COc1cc(C(=O)O)ccc1NC(=O)[C@@H]1N[C@@H](CC(C)(C)C)[C@](C#N)(c2ccc(Cl)cc2F)[C@H]1c1cccc(Cl)c1F [Idasanutlin]
[9]
  Kp: 0.35
p53
  p53 stabilization in tumor: stabilizes p53

## CC[C@H]1/C=C/C=C/C[C@@H](C)[C@H](O)[C@@](C)(O)C(=O)[C@@H](C)[C@H](O)[C@@H](C)C(=O)[C@@H](C)[C@H](O)[C@@H](C)/C=C/C(=O)O[C@@H]2[C@H](C)[C@H](CC1)O[C@]1(CC[C@H](C)[C@H](C[C@@H](C)O)O1)[C@H]2C [oligomycin]
[6]
  synergy with nutlin treatment (annexin V): did not synergize with nutlin

## Fc1c(Cl)cccc1Nc1ncnc2cc3c(cc12)OCCO3 [JGK010]
[2]; male, CD-1, mouse, brain / plasma, non-tumor bearing mice
  Kp: 1.06
[2]; [12]
  Kp uu: 1.04
EGFR
  pIC50: ~8.10
HK301; HK301, 3 days, read-out: HK301 GI50
  GI50: 780 nM
[5]; blood
  Bound (blood): 98.88%
[5]; blood, Fu (blood)
  fraction unbound: 0.0112
[5]; brain
  Bound (brain): 98.90%
[5]; brain, Fu (brain)
  fraction unbound: 0.011
GBM39
  GI50: 2590 nM

## COc1cc2ncnc(Nc3cccc(Cl)c3F)c2cc1OC(=O)N1CCN(C)C[C@H]1C [AZD3759]
[2]; [12]
  Kp uu: 0.802
In vitro; Fu (blood)
  fraction unbound: 0.052
In vitro; Fu (brain)
  fraction unbound: 0.0144

## CS(=O)(=O)N1CCN(Cc2cc3nc(-c4cccc5[nH]ncc45)nc(N4CCOCC4)c3s2)CC1 [pictilisib]
[1]; HK254 and HK393, 4 hours
  PI3K-AKT-mTOR signaling: abrogated PI3K-AKT-mTOR signaling
[4]; HK393 and HK254 (EGFRi non-responders), pictilisib 1 μM
  18F-FDG uptake: significantly reduced
[6]
  lethality in combination with nutlin: significant, p53-dependent synergistic lethality
[8]; [11]
  apoptotic priming: significantly higher apoptotic priming
